Converted amounts (≈) assume the structure as drawn.

For this data set the following is noted: buffer; pH 7.4; 200.0 µM.
Consider `CC1CC(C)CN(S(=O)(=O)c2ccc(Cl)cc2)C1` (stereo unspecified), for which the solubility (kinetic) (in general, solubility judged after dilution from a stock solution rather than from solid) was found to be 9.3 µg/mL (≈ 32.3 µM). As for `Cc1ccc(CN2CCN(c3ncccn3)CC2)c(C)c1`, the figure is 19.4 µg/mL (≈ 68.7 µM); as for `COc1ccc(C(=O)COc2ccccc2C(N)=O)cc1`, 31.6 µg/mL (≈ 111 µM); as for `COc1cccc(C(=O)OCC(=O)NC(=O)NC2CCCC2)c1O`, 38.5 µg/mL (≈ 114 µM). For `c1ccc(COCC2CCNCC2)cc1`, the kinetic solubility is more than 30.8 µg/mL. On to `O=C(Nc1cccc(NC(=O)c2ccc([N+](=O)[O-])o2)c1)c1ccco1`, for which the solubility (kinetic) turned out to be 4.5 µg/mL (≈ 13.2 µM). The result for `Cc1ccc(C2SCC(=O)N2Cc2ccccc2)cc1` (stereo unspecified) reads 21.9 µg/mL (≈ 77.3 µM). The result for `COc1cccc(C(=O)NC2CCNCC2)c1` reads 31.4 µg/mL (≈ 134 µM); that for `Nc1cc(C(=O)OCC(=O)NCCCc2ccccc2)ccc1Cl`, 10.5 µg/mL (≈ 30.3 µM). In the case of `CN(C)S(=O)(=O)c1cccc(NC(=O)c2cc(=O)[nH]c(=O)[nH]2)c1`, the kinetic solubility was more than 50.8 µg/mL.

The compound `Cn1c(/C=C/c2ccccc2)nc2ccccc2c1=O` yielded a kinetic solubility of 2.3 µg/mL (≈ 8.77 µM). The result for `COC(=O)c1cc(NC(=O)c2cccs2)ccc1N1CCOCC1` reads 43.5 µg/mL (≈ 126 µM); that for `Cc1cccnc1NC(=S)Nc1ccc(Cl)c(Cl)c1`, 3.7 µg/mL (≈ 11.9 µM); that for `O=C(NCc1ccccc1)c1nc[nH]c1C(=O)NCc1ccccc1`, 1.1 µg/mL (≈ 3.29 µM). On to `Cc1ccc(-c2csc3nc[nH]c(=O)c23)c(C)c1`, for which the solubility (kinetic) turned out to be 2.4 µg/mL (≈ 9.36 µM). As for `CCn1cc(CN2CCN(C)C(CCO)C2)c2ccccc21` (stereo unspecified), the kinetic solubility was determined as 45 µg/mL (≈ 149 µM). Regarding `O=C(NCC(=O)N1CCN(Cc2ccc3c(c2)OCO3)CC1)c1ccccc1F`, the solubility (kinetic) is 1.4 µg/mL (≈ 3.51 µM). Turning to `O=C1c2cccnc2C(=O)N1c1cccc([N+](=O)[O-])c1`, the solubility (kinetic) was more than 40.4 µg/mL. The result for `CCNC(=O)Cn1cc(C(F)(F)F)cc(Cl)c1=O` reads more than 42.4 µg/mL; that for `Nc1nc(Nc2ccccc2)nc(C(F)(F)F)n1`, more than 38.3 µg/mL. As for `CC(=O)c1cccc(NC(=S)Nc2ccc(F)cc2)c1`, the figure is 30.3 µg/mL (≈ 105 µM); as for `N#Cc1cc([N+](=O)[O-])ccc1NC(=O)COC(=O)c1cnccn1`, more than 49.1 µg/mL. The result for `CC(C)CN1C(=O)N(c2ccc(Cl)cc2)C(C)(O)CC1(C)C` (stereo unspecified) reads 4.1 µg/mL (≈ 12.6 µM).

With `CC(CC(=O)NCc1ccc(Cl)cc1)c1ccccc1` (stereo unspecified), the kinetic solubility came out at 39 µg/mL (≈ 136 µM). The result for `O=C1CN(C(=O)COC(=O)CCc2ccccc2)c2ccccc2N1` reads more than 50.8 µg/mL. As for `CCCCNc1cc(C(=O)O)cc(S(N)(=O)=O)c1Oc1ccccc1`, the figure is more than 54.7 µg/mL; as for `Cc1cc(C)nc(SCc2c(F)cccc2Cl)n1`, less than 0.3 µg/mL; as for `Cc1nn(-c2ccccc2)c(N)c1N=O`, more than 30.3 µg/mL.

`O=C(CSc1ccc(Cl)cc1)Nc1ccc(C2SCCS2)cc1` yielded a solubility (kinetic) of 1 µg/mL (≈ 2.62 µM). Take `O=C1CC(c2ccccc2F)c2c(c3ccccc3[nH]c2=O)O1` (stereo unspecified): the kinetic solubility turned out to be 11.4 µg/mL (≈ 36.9 µM). As for `CCOc1ccccc1C(=O)OCC(=O)NCC1CCCCC1`, the figure is more than 47.9 µg/mL.

As to `CCOCCCNC(=O)CN1C(=O)c2cccc3cccc1c23`, the solubility (kinetic) is more than 46.9 µg/mL. `COc1ccc(C(=O)CCN2CCCC(C)C2)cc1.Cl` (stereo unspecified) displayed a solubility (kinetic) of more than 44.7 µg/mL. In turn, `CCOC(=O)Cc1csc(NC(=O)CN2CCOCC2)n1` came in with a kinetic solubility of 40.1 µg/mL (≈ 128 µM).

`O=C(Cn1cnc2ccccc2c1=O)c1ccc(OC(F)F)cc1` gave a kinetic solubility of 9.2 µg/mL (≈ 27.9 µM).

`CC(=O)NCCc1cnc[nH]1` had a kinetic solubility of more than 23 µg/mL. The result for `O=C(NCc1ccccc1)c1ccc2c(c1)C(=O)N(Cc1cccnc1)C2=O` reads 38.1 µg/mL (≈ 103 µM); that for `CC(=O)N1CCN(c2ccccc2NC(=O)c2ccc(C#N)cc2F)CC1`, 52.6 µg/mL (≈ 144 µM). The result for `O=C1CN(c2ccccc2)C(=O)N1` reads more than 26.4 µg/mL; that for `COCC(C)NC(=O)C1c2ccccc2Oc2ccccc21` (stereo unspecified), 40.1 µg/mL (≈ 135 µM). The result for `Cl.OC(CNCc1cccc(Br)c1)c1ccccc1` (stereo unspecified) reads 48.1 µg/mL; that for `C#CCOc1ccc(/C=C2/C(=O)N(c3cccc(C(=O)O)c3)N=C2C)cc1OC`, more than 58.6 µg/mL; that for `Cl.Nc1cccc2c3c(oc12)CCCC3`, 7.4 µg/mL. For `CC(=O)N1CCc2ccc(S(=O)(=O)Nc3ccccc3Cl)cc21`, the kinetic solubility turned out to be 39.2 µg/mL (≈ 112 µM). `CCCN1CCN(c2ccc(S(N)(=O)=O)cc2[N+](=O)[O-])CC1` displayed a kinetic solubility of 32.9 µg/mL (≈ 100 µM). The result for `O=C(Nc1nc2cc3c(cc2s1)OCO3)c1ccco1` reads 1 µg/mL (≈ 3.47 µM); that for `O=C(Nc1ccc(-n2cccc2)cc1)C1CC1`, 6.4 µg/mL (≈ 28.3 µM).

On to `O=C(CN1C(=O)NC2(CCCCCC2)C1=O)Nc1ccc(Cl)c([N+](=O)[O-])c1`, for which the kinetic solubility was found to be 5.8 µg/mL (≈ 14.7 µM). This solubility kinetic and that of the compound before are within 1.5-fold of each other. On to `CCC(C)[C@H](NC(=O)NCc1cccnc1)C(=O)OC` (stereo partly specified), for which the kinetic solubility was found to be 41.5 µg/mL (≈ 149 µM). The result for `COC(=O)c1sc(SC)nc1N` reads 30.4 µg/mL (≈ 149 µM); that for `COc1ccc(OC)c(NC(=S)Nc2ccccc2)c1`, more than 43.3 µg/mL; that for `CCc1ccccc1N1CC(C(=O)Nc2nccs2)CC1=O` (stereo unspecified), 45.2 µg/mL (≈ 143 µM). Regarding `COc1ccc([N+](=O)[O-])cc1NC(=O)COC(=O)Cn1cnc2ccccc2c1=O`, the solubility (kinetic) is more than 61.9 µg/mL. On to `CCOc1ccc(OCC)c(S(=O)(=O)n2cc(C)nc2CC)c1`, for which the solubility (kinetic) was determined as 10.6 µg/mL (≈ 31.3 µM). Consider `CC(=O)c1ccc(C(=O)NC2CCCN(Cc3ccccc3F)C2)cc1` (stereo unspecified), for which the solubility (kinetic) was more than 53.2 µg/mL. The result for `Cc1ccc(Nc2nc(-c3cccnc3)cs2)cc1C` reads 0.4 µg/mL (≈ 1.42 µM).

As to `Cc1c(C)n(CCc2ccccc2)c2ncnc(NCCO)c12`, the solubility (kinetic) was more than 46.6 µg/mL. `N#CCc1ccc(OC(=O)c2ccncc2)cc1` had a kinetic solubility of more than 35.7 µg/mL.

Consider `O=C(NCCCc1ccccc1)c1ccc(F)cc1`, for which the kinetic solubility was more than 38.6 µg/mL. `CC(C)(C)N(Cc1cc2ccccc2[nH]c1=O)C(=O)c1ccco1`: the solubility (kinetic) turned out to be 2.9 µg/mL (≈ 8.94 µM). The result for `COCCCN1C(=O)CC(C(=O)OC)=C1C` reads more than 34.1 µg/mL; that for `CCOc1ccc(NC(=O)NC2CC(=O)N(c3ccc(OC)cc3)C2)cc1` (stereo unspecified), 7.7 µg/mL (≈ 20.8 µM); that for `COc1cccc(OCC(O)CNC(=O)c2oc3ccc(C)cc3c2C)c1` (stereo unspecified), 20.2 µg/mL (≈ 54.7 µM). As for `N/C(=N\OC(=O)CC1CCCCC1)c1ccc(Cl)cc1`, the figure is 0.9 µg/mL (≈ 3.05 µM).

Regarding `COc1ccc(/C(N)=N/OC(=O)C2CCCCC2)cc1`, the solubility (kinetic) came out at 20.6 µg/mL (≈ 74.5 µM). Compound `CC(=O)c1sc(NC(=O)COc2ccccc2)nc1C` yielded a solubility (kinetic) of 5.7 µg/mL (≈ 19.6 µM). As for `Cc1cccc(NC(=O)CCC(=O)N2CCOCC2)n1`, the figure is more than 41.6 µg/mL; as for `CCC(=O)Nc1ccc(CCC(=O)N2CCCC2)cc1`, 40 µg/mL (≈ 146 µM). `CCN1C(=O)CSC1=Nc1ccccc1Cl` yielded a solubility (kinetic) of 27.9 µg/mL (≈ 110 µM). Compound `COc1ccc(-c2noc(CN(C)C3CCOCC3)n2)cc1` registered a kinetic solubility of more than 45.5 µg/mL. As for `COn1c(=O)c(-c2cccc(Br)c2)[n+]([O-])c2ccccc21`, the figure is 4.9 µg/mL (≈ 14.1 µM); as for `Cc1ccc(Cn2c(N3CCN(C)CC3)nc3c2c(=O)[nH]c(=O)n3C)cc1`, more than 55.3 µg/mL.

In turn, `CCCn1c2ccccc2c2cnn(CC(=O)N(CC)CC)c(=O)c21` gave a solubility (kinetic) of more than 51.1 µg/mL. Compound `Cc1ccsc1C(=O)OCC(=O)NC1CC1` showed a solubility (kinetic) of more than 35.9 µg/mL. For `COc1ccc(C(=O)N=c2sc3ccccc3n2C)cc1`, the kinetic solubility was less than 0.3 µg/mL. The compound `CCN(CC)C(=O)N1CCN(C(=O)N2CCOCC2)CC1` yielded a kinetic solubility of 30 µg/mL (≈ 101 µM).

The values are drawn from PubChem BioAssay AID1996.
